The values below come from patent publication US10577362B2, “Substituted 2, 4-diamino-quinoline derivatives for use in the treatment of proliferative diseases” (GENOSCIENCE PHARMA, priority 2016, dated 2020).

SMILES strings stand for the structures. Structures can show the parent of a compound that is named as a salt.

Assay type in all cases: cell-based, human
Test [1] has as its system Huh7 (hepatocellular carcinoma) cell line. The test is described as follows: CellTiter-Glo luminescent cell viability assay, Huh7. The note with it: Homo sapiens, Huh-7; for EC50: Huh7 cell line, 72 h incubation, CellTiter-Glo, read-out: EC50, growth inhibition of Huh7; for viability at 4 µM: Huh7, compound at 4 μM; for viability at 4 µM / viability at 10 µM: 72 h; for viability at 10 µM: Huh7, compound at 10 μM. The method, then: (§1) All cell lines were maintained in medium containing 1% penicillin-streptomycin (Dutscher, P06-07100) and 10% Fetal Bovine Serum (Hyclone Dutscher, RZK35922) cultured at 37° C. with 5% CO2. HepG2 (hepatocellular carcinoma), cell line was cultured in Dulbecco's modified Eagle's medium low glucose (Gibco, 21885025), Huh7 (hepatocellular carcinoma), HCT-116 (colorectal carcinoma), PANC-1 (prancreatic carcinoma) and A375 (malignant melanoma) cell lines were cultured in Dulbecco's modified Eagle's medium (Dutscher, L0103). MOLM-14 (acute myeloid leukemia) cell line was maintained in MEM alpha medium (Gibco, 22561-021). 786-0 (renal adenocarcinoma) cell lines were maintained in RPMI 1640 medium (Dutscher, L0498).
(§2) Cell viability was measured using the CellTiter-Glo® luminescent cell viability assay as described by the manufacturer (Promega, Ref G7571) using an Infinite F200Pro luminometer (Tecan). Briefly, for adherent cells, cells were plated onto 96-well plates (white with clear bottom) in 90 μL of media per well and were allowed to grow overnight before the assay. For cells growing in suspension, cells were plated onto 96-well plates 1 h before the assay.
(§3) Compounds were resuspended in H2O or DMSO and added at different concentrations to each well, and cell cultures were incubated for 72 h. Each diluent (H2O or DMSO) were used as a control, and all compounds were tested in a constant percentage of H2O or DMSO. On the day of the reading, plates are equilibrated 30 min at room temperature before the addition of 100 μL of CellTiter-Glo® and luminescence was measured using an Infinite F200Pro (Tecan). % cell viability were expressed as a percentage of the signal obtained for cell cultures treated with diluent. EC50 values were determined as the dose of compound required to reduce luminescent values to 50% of the signal obtained for cell cultures treated with diluent. The experimental data were analyzed using a computer program, Graphpad Prism v5 (GraphPad Software, Inc. La Jolla, Calif.). All points were at least done in duplicate.

The subject of test [2] is 786-O (renal adenocarcinoma) cell line. As to the kind of experiment: CellTiter-Glo luminescent cell viability assay, 786-O. The note with it: Homo sapiens, 786-0; for EC50: 786-O cell line, 72 h incubation, CellTiter-Glo, read-out: EC50, growth inhibition of 786-O; for viability at 4 µM / viability at 10 µM: 786-O, 72 h; for viability at 4 µM: compound at 4 μM; for viability at 10 µM: compound at 10 μM. The method, then:
as §1, §2, §3

The test system of test [3] is MOLM-14 (acute myeloid leukemia) cell line. The test is described as follows: CellTiter-Glo luminescent cell viability assay, MOLM-14. As to conditions: Homo sapiens; for EC50: MOLM-14 cell line, 72 h incubation, CellTiter-Glo, read-out: EC50, growth inhibition of MOLM-14; for viability at 4 µM: MOLM-14, compound at 4 μM; for viability at 4 µM / viability at 10 µM: 72 h; for viability at 10 µM: MOLM-14, compound at 10 μM. How it is done: as §1, §2, §3
A general note: ATP-based viability assays read luminescence as a measure of living cells.

The subject of test [4] is A375 (malignant melanoma) cell line. The test is described as follows: CellTiter-Glo luminescent cell viability assay, A375. As to conditions: Homo sapiens, A-375; for EC50: A375 cell line, 72 h incubation, CellTiter-Glo, read-out: EC50, growth inhibition of A375; for viability at 4 µM: A375, compound at 4 μM; for viability at 4 µM / viability at 10 µM: 72 h; for viability at 10 µM: A375, compound at 10 μM. The method, then:
as §1, §2, §3

Test [5] has as its system HepG2 (hepatocellular carcinoma) cell line. The test is described as follows: CellTiter-Glo luminescent cell viability assay, HepG2. The note with it: Homo sapiens; for EC50: HepG2 cell line, 72 h incubation, CellTiter-Glo, read-out: EC50, growth inhibition of HepG2; for viability at 4 µM / viability at 10 µM: HepG2, HepG, 72 h; for viability at 4 µM: compound at 4 μM; for viability at 10 µM: compound at 10 μM. The method, then: as §1, §2, §3

Test [6] relates to HCT-116 (colorectal carcinoma) cell line. As to the kind of experiment: CellTiter-Glo luminescent cell viability assay, HCT-116. The note with it: Homo sapiens; for EC50: HCT-116 cell line, 72 h incubation, CellTiter-Glo, read-out: EC50, growth inhibition of HCT-116; for viability at 4 µM: HCT-116, compound at 4 μM; for viability at 4 µM / viability at 10 µM: 72 h; for viability at 10 µM: HCT-116, compound at 10 μM. The method, then:
as §1, §2, §3

One may read the EC50 as the concentration giving half of the maximal effect. With `Cc1ccc2c(N3CCC(NC(C)(C)C)CC3)cc(NCc3ccc(Cl)cc3)nc2c1F` [Compound 564, 2-(4-chlorobenzylamino)-4-[4-(tert-butylamino)piperidin-1-yl]-7-methyl-8-fluoroquinoline], the EC50 in test [1] lay within 5 to 10 µM; in test [2], 0.5 to 5 µM; in test [3], 0.5 to 5 µM; in test [4] it was 0.5 to 5 µM; in test [5] it was 0.5 to 5 µM; in test [6], 0.5 to 5 µM.
As usually defined, the viability is a read-out of living cells in per cent, often relative to untreated cells. With `N#Cc1c(NCc2ccc(Cl)cc2)nc2ccccc2c1N1CCC(Oc2cccc(F)c2)C1` (stereo not drawn) [Compound 3340CN, 2-(4-chlorobenzylamino)-3-cyano-4-[3-(3-fluorophenoxy)pyrrolidin-1-yl]quinoline], the viability at 4 µM in test [1] was determined as 85.6%; in test [2], 65.7%; in test [3], 96%; in test [4], 95.9%; in test [5], 98.9%; in test [6] it was 101%. For the same molecule, the viability at 10 µM in test [1] was found to be 39.9%; in test [2], 36.4%; in test [3] it was 97.7%; in test [4] it was 90.8%; in test [5] it was 90.8%; in test [6] it was 86.3%.
Take `COc1ccc(OC2CCN(c3c(C#N)c(NCc4ccc(Cl)cc4)nc4ccccc34)CC2)cc1` [Compound 3224CN, 2-(4-chlorobenzylamino)-3-cyano-4-[4-(4-methoxyphenoxy)piperidin-1-yl]quinoline]: the viability at 4 µM in test [1] came to 116%; in test [2], 96.3%; in test [3], 112%; in test [4], 96%; in test [5], 91.6%; in test [6], 89.8%. The viability at 10 µM amounted to 90% in test [1]; 88.9% in test [2]; 94.6% in test [3]; 91.7% in test [4]; 70% in test [5]; 65.1% in test [6].
With `Cc1cc(C)nc(Nc2ccc(Nc3nc4ccccc4c(N4CCC(NC(C)(C)C)CC4)c3C#N)cc2C)n1` [Compound 502CN, 2-[4-(4,6-dimethyl-2-pyrimidinamino)-3-methyl-phenylamino]-3-cyano-4-(4-tert-butylaminopiperidin-1-yl)-quinoline], the EC50 lay within 5 to 10 µM in test [1]; 0.5 to 5 µM in test [2]; 5 to 10 µM in test [3]; 0.5 to 5 µM in test [4]; 0.5 to 5 µM in test [5]; 0.5 to 5 µM in test [6].
`Cc1ccnc(Nc2ccc(Nc3nc4ccccc4c(N4CCC(NC(C)(C)C)CC4)c3C#N)cc2)n1` [Compound 532CN, 2-[4-(4-methylpyrimidin-2-ylamino)phenylamino]-3-cyano-4-(4-tert-butylaminopiperidin-1-yl)quinoline]: the EC50 was 5 to 10 µM in test [1]; 0.5 to 5 µM in test [2]; 5 to 10 µM in test [3]; 0.5 to 5 µM in test [4]; 5 to 10 µM in test [5]; 0.5 to 5 µM in test [6].
`Cc1cc(Nc2nc3ccccc3c(N3CCC(NC(C)(C)C)CC3)c2C#N)ccc1Nc1nccc(-c2cccnc2)n1` [Compound 3131CN, 2-[4-(4-(pyridin-3-yl)pyrimidin-2-ylamino)-3-methylphenylamino]-3-cyano-4-(4-tert-butylaminopiperidin-1-yl)quinoline]: the viability at 4 µM came to 87% in test [1]; 42.6% in test [2]; 80.1% in test [3]; 79.4% in test [4]; 80.6% in test [5]; 63.9% in test [6]. Also, the viability at 10 µM in test [1] was determined as 69.8%; in test [2] it was 0.1%; in test [3] it was 7.3%; in test [4], 0.1%; in test [5], 0.1%; in test [6], 0.1%.
For the molecule `CC(C)(C)NC1CCN(c2c(C#N)c(Nc3ccc(Cl)cc3)nc3ccccc23)CC1` [Compound 3258CN, 2-(4-chlorophenylamino)-3-cyano-4-[4-(tert-butylamino)piperidin-1-yl]quinoline], the viability at 4 µM in test [1] was found to be 73.8%; in test [2] it was 4.4%; in test [3], 79.8%; in test [4] it was 9.7%; in test [5] it was 44.3%; in test [6] it was 0.7%. Besides, the viability at 10 µM in test [1] came to 1.8%; in test [2], 0.7%; in test [3], 1%; in test [4] it was 0.8%; in test [5], 0.8%; in test [6], 0.6%. Also, the EC50 in test [1], in test [2], in test [3], in test [4], in test [5] and in test [6] was 0.5 to 5 µM throughout.
With `Cc1c(Nc2cccc(Nc3nccc(C(F)(F)F)n3)c2)nc2ccccc2c1N1CCC(NC(C)(C)C)CC1` [Compound 540Me, 2-[3-(4-trifluoromethylpyrimidin-2-ylamino)phenylamino]-3-methyl-4-(4-tert-butylaminopiperidin-1-yl)quinoline], the viability at 4 µM in test [1] worked out at 63.9%; in test [2], 2.6%; in test [3], 63.1%; in test [4], 1.6%; in test [5], 38.3%; in test [6], 0.4%. Also, the viability at 10 µM in test [1] was determined as 0.2%; in test [2], 0.1%; in test [3], 0.3%; in test [4], 0.1%; in test [5] it was 0.1%; in test [6] it was 0.1%.
As for `Cc1cc(C)nc(Nc2ccc(Nc3nc4ccccc4c(N4CCC(NC(C)(C)C)CC4)c3C#N)cc2)n1` [Compound 3276CN, 2-{4-[(4,6-dimethylpyrimidin-2-yl)amino]phenylamino}-3-cyano-4-[4-(tert-butylamino)piperidin-1-yl]quinoline], the viability at 4 µM is 41.2% in test [1]; 4.5% in test [2]; 51.9% in test [3]; 2.9% in test [4]; 38.5% in test [5]; 0.9% in test [6]. Moreover, the viability at 10 µM in test [1] stood at 1%; in test [2], 0.9%; in test [3], 1%; in test [4] it was 1%; in test [5] it was 0.9%; in test [6], 0.9%. The EC50 in test [1], in test [2], in test [3], in test [4], in test [5] and in test [6] was 0.5 to 5 µM each time.
For `CC(C)OC1CCN(c2cc(NCc3ccc(Cl)cc3)nc3ccccc23)CC1` [Compound 2918, 2-(4-chlorobenzylamino)-4-[4-(iso-propoxy)-piperidin-1-yl]-quinoline hydrochloride], the EC50 was in the range of 5 to 10 µM in test [1]; 5 to 10 µM in test [2]; 0.5 to 5 µM in test [3]; 5 to 10 µM in test [4]; 0.5 to 5 µM in test [5]; 0.5 to 5 µM in test [6].
